Results published in patent publication US10093630B2, “Pyrazole compounds and methods of making and using same” (ABIDE THERAPEUTICS, INC., priority 2014, dated 2018).
Where two headings read alike, the source gives them in different places.

Experiments:
Test in all cases: In vitro competitive activity-based protein profiling (gel-based, FP-Rh or HT-01 probe)
Assay type in all cases: biochemical
[1] = molecular target: T1, ABHD6 (Mus musculus, UniProt Q8R2Y0); conditions: for inhibition at 1 µM: 1 μM inhibitor, read-out: % Inhibition at 1 μM, C = ABHD6; for inhibition at 10 µM: 10 μM inhibitor, read-out: % Inhibition at 10 μM, C = ABHD6; for IC50: mouse brain membrane fraction or cell lysates, 30 min preincubation at 37° C., read-out: Mouse (IC50 value, nM) ABHD6
T1 construct: Proteomes (mouse brain membrane fraction or cell lysates); from tissue; host or cells: mouse brain membrane fraction (or cell lysates, not specified)
T1 sequence (Q8R2Y0 1-336): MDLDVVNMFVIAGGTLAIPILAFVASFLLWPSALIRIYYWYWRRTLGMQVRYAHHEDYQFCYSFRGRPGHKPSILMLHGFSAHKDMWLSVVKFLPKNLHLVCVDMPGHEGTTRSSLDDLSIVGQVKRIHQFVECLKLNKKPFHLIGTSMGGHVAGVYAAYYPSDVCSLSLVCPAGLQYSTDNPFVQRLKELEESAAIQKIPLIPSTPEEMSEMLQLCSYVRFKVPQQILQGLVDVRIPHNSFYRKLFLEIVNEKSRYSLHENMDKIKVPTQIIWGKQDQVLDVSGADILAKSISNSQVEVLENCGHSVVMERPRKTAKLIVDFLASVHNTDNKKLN
How it was run: (§1)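 Mouse brain membrane or cell lysate proteomes (1.0 mg/mL) preincubated with inhibitors 30 min at 37° C, then labelled with FP-Rh or HT-01 for 30 min at 37° C. After SDS-PAGE, activity quantified from fluorescent band intensity.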

[2] = molecular target: T2, FAAH (Mus musculus, UniProt O08914); conditions: for inhibition at 1 µM: 1 μM inhibitor, read-out: % Inhibition at 1 μM, B = FAAH; for inhibition at 10 µM: 10 μM inhibitor, read-out: % Inhibition at 10 μM, B = FAAH; for IC50: mouse brain membrane fraction or cell lysates, 30 min preincubation at 37° C., read-out: Mouse (IC50 value, nM) FAAH
T2 construct: Proteomes (mouse brain membrane fraction or cell lysates); from tissue; host or cells: mouse brain membrane fraction (or cell lysates, not specified)
T2 sequence (O08914 1-579): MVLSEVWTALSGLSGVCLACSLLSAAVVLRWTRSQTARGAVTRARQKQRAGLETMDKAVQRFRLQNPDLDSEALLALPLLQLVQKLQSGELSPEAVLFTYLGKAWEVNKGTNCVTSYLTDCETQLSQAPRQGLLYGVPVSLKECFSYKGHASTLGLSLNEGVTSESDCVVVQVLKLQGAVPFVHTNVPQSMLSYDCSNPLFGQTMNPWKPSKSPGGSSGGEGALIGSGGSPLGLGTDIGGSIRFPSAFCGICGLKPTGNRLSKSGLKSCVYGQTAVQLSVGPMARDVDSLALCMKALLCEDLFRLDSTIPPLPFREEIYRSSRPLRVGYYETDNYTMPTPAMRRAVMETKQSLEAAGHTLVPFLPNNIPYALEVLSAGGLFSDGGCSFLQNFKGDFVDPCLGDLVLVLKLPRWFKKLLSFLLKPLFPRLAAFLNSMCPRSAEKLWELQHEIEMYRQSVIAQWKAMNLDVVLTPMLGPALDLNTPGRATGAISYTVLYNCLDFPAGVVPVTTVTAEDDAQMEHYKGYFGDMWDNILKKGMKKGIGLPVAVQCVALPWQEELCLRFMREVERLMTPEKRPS
How it was run: as §1

[3] = molecular target: T3, MAGL (Mus musculus, UniProt O35678); conditions: for inhibition at 1 µM: 1 μM inhibitor; for inhibition at 10 µM: 10 μM inhibitor; for IC50: mouse brain membrane fraction or cell lysates, 30 min preincubation at 37° C., read-out: Mouse (IC50 value, nM) MAGL
T3 construct: Proteomes (mouse brain membrane fraction or cell lysates); from tissue; host or cells: mouse brain membrane fraction (or cell lysates, not specified)
T3 sequence (O35678 1-303): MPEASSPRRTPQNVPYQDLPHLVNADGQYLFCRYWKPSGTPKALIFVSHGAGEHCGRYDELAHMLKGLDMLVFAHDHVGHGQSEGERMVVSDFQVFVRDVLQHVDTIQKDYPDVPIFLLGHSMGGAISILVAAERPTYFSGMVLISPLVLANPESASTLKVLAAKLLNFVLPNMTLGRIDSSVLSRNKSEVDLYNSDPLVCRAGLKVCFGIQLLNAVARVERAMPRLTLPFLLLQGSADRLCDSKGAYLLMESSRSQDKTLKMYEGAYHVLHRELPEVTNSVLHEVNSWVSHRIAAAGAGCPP
How it was run: as §1

[4] = molecular target: T4, PLA2G7 (Mus musculus, UniProt Q60963); conditions: for inhibition at 1 µM: 1 μM inhibitor, read-out: % Inhibition at 1 μM, D = PLA2G7; for inhibition at 10 µM: 10 μM inhibitor, read-out: % Inhibition at 10 μM, D = PLA2G7; for IC50: mouse brain membrane fraction or cell lysates, 30 min preincubation at 37° C.
T4 construct: Proteomes (mouse brain membrane fraction or cell lysates); from tissue; host or cells: mouse brain membrane fraction (or cell lysates, not specified)
T4 sequence (Q60963 22-440): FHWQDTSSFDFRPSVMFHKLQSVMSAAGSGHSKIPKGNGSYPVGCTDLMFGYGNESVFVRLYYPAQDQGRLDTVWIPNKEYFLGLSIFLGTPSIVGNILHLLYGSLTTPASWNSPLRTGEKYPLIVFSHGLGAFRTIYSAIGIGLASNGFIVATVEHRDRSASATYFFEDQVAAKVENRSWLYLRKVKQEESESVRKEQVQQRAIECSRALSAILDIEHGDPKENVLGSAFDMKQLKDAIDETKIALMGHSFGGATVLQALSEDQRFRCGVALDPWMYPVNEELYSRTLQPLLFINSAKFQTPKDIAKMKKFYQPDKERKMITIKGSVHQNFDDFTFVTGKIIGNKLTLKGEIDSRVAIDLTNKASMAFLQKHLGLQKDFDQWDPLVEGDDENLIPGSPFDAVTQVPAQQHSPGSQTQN
How it was run: as §1

Structure (SMILES) | inhibition at 1 µM [1] | inhibition at 10 µM [1] | inhibition at 1 µM [2] | inhibition at 10 µM [2] | inhibition at 1 µM [3] | inhibition at 10 µM [3] | inhibition at 1 µM [4] | inhibition at 10 µM [4] | IC50 [1] | IC50 [2] | IC50 [3] | IC50 [4] | inhibition at 1 µM ([1]; gel-based competitive ABPP) | inhibition at 1 µM ([2]; gel-based competitive ABPP) | inhibition at 1 µM ([3]; gel-based competitive ABPP) | inhibition at 1 µM ([4]; gel-based competitive ABPP) | inhibition at 10 µM ([1]; gel-based competitive ABPP) | inhibition at 10 µM ([2]; gel-based competitive ABPP) | inhibition at 10 µM ([3]; gel-based competitive ABPP) | inhibition at 10 µM ([4]; gel-based competitive ABPP)
CCN(Cc1cccc(OC)c1)C(=O)n1cc(Cl)cn1 [Example 128, 4-Chloro-N-ethyl-N-(3-methoxybenzyl)-1H-pyrazole-1-carboxamide] |  | > 75% |  | > 75% |  | > 75% |  | < 25% | > 1000 nM | 100 to 1000 nM | > 1000 nM |  |  |  |  |  |  |  |  | 
CC(C)c1cnn(C(=O)N2CCN(Cc3c(N4CCCC4)cccc3C(F)(F)F)CC2)c1 [Example 112, (4-Isopropyl-1H-pyrazol-1-yl)(4-(2-(pyrrolidin-1-yl)-6-(trifluoromethyl)benzyl)piperazin-1-yl)methanone] | > 75% | > 75% | < 25% | < 25% | < 25% | > 75% | < 25% | > 75% | 100 to 1000 nM |  |  |  |  |  |  |  |  |  |  | 
Cc1cnn(C(=O)N(C)CCN(C)Cc2ccccc2)c1 [Example 171, N-(2-(Benzyl(methyl)amino)ethyl)-N,4-dimethyl-1H-pyrazole-1-carboxamide] |  | < 25% |  | < 25% |  | < 25% |  | < 25% |  |  |  |  |  |  |  |  |  |  |  | 
O=C(N1CCN(Cc2ccc(C(F)(F)F)cc2)CC1)n1cc(Cl)cn1 [Example 213, (4-Chloro-1H-pyrazol-1-yl)(4-(4-(trifluoromethyl)benzyl)piperazin-1-yl)methanone] | > 75% | > 75% | > 75% | > 75% | > 75% | > 75% | < 25% | > 75% | < 100 nM | < 100 nM | < 100 nM | 100 to 1000 nM |  |  |  |  |  |  |  | 
CCN(Cc1ccc(N2CCOCC2)cc1)C(=O)n1cc(C)cn1 [Example 265, N-Ethyl-4-methyl-N-(4-morpholinobenzyl)-1H-pyrazole-1-carboxamide] |  |  |  |  |  |  |  |  |  |  |  |  | < 25% | < 25% | < 25% | < 25% |  |  |  | 
CCN(Cc1cccc(C)c1)C(=O)n1cc(C(F)(F)F)cn1 [Example 247, N-Ethyl-N-(3-methylbenzyl)-4-(trifluoromethyl)-1H-pyrazole-1-carboxamide] |  |  |  |  |  |  |  |  | 100 to 1000 nM | 100 to 1000 nM | 100 to 1000 nM | > 1000 nM | 25 to 75% | > 75% | < 25% | < 25% | > 75% | > 75% | > 75% | < 25%
O=C(N1CCN(Cc2ccccc2Cl)CC1)n1cc(C(F)(F)F)cn1 [Example 275, (4-(2-Chlorobenzyl)piperazin-1-yl)(4-(trifluoromethyl)-1H-pyrazol-1-yl)methanone] |  |  |  |  |  |  |  |  | < 100 nM | < 100 nM | < 100 nM | < 100 nM | > 75% | > 75% | > 75% | > 75% |  |  |  | 

The next lines start with results.

inhibition at 1 µM [1] | inhibition at 10 µM [1] | inhibition at 1 µM [2] | inhibition at 10 µM [2] | inhibition at 1 µM [3] | inhibition at 10 µM [3] | inhibition at 1 µM [4] | inhibition at 10 µM [4] | IC50 [1] | IC50 [2] | IC50 [3] | IC50 [4] | inhibition at 1 µM ([1]; gel-based competitive ABPP) | inhibition at 1 µM ([2]; gel-based competitive ABPP) | inhibition at 1 µM ([3]; gel-based competitive ABPP) | inhibition at 1 µM ([4]; gel-based competitive ABPP) | Structure (SMILES) | inhibition at 10 µM ([1]; gel-based competitive ABPP) | inhibition at 10 µM ([2]; gel-based competitive ABPP) | inhibition at 10 µM ([3]; gel-based competitive ABPP) | inhibition at 10 µM ([4]; gel-based competitive ABPP)
25 to 75% | > 75% | < 25% | > 75% | < 25% | 25 to 75% | < 25% | > 75% |  |  |  |  |  |  |  |  | Cc1cnn(C(=O)N2CCCCC2)c1 [Example 2, (4-Methyl-1H-pyrazol-1-yl)(piperidin-1-yl)methanone] |  |  |  | 
25 to 75% | > 75% |  | 25 to 75% |  | < 25% | < 25% | > 75% |  |  |  |  |  |  |  |  | O=C(c1cnn(C(=O)N2CCN(Cc3cccnc3)CC2)c1)N1CCCC1 [Example 80, (4-(Pyridin-3-ylmethyl)piperazin-1-yl)(4-(pyrrolidine-1-carbonyl)-1H-pyrazol-1-yl)methanone] |  |  |  | 
25 to 75% | > 75% | > 75% | > 75% | < 25% | > 75% | 25 to 75% | > 75% |  |  |  |  |  |  |  |  | O=C(N1CCCC1)n1cc(C(F)(F)F)cn1 [Example 199, Pyrrolidin-1-yl(4-(trifluoromethyl)-1H-pyrazol-1-yl)methanone] |  |  |  | 
< 25% | > 75% | < 25% | > 75% | < 25% | > 75% | < 25% | 25 to 75% |  |  |  |  |  |  |  |  | CS(=O)(=O)N1CCCN(C(=O)n2cc(C#N)cn2)CC1 [Example 178, 1-(4-(methylsulfonyl)-1,4-diazepane-1-carbonyl)-1H-pyrazole-4-carbonitrile] |  |  |  | 
> 75% | > 75% | > 75% | > 75% | < 25% | 25 to 75% | > 75% | > 75% |  |  |  |  |  |  |  |  | O=C(N1CCOCC1)n1cc(C(F)(F)F)cn1 [Example 201, Morpholino(4-(trifluoromethyl)-1H-pyrazol-1-yl)methanone] |  |  |  | 
> 75% | > 75% | > 75% | > 75% | > 75% | > 75% | > 75% | > 75% | 100 to 1000 nM | 100 to 1000 nM | > 1000 nM | 100 to 1000 nM |  |  |  |  | O=C(N1CCCCC1)n1cc(C(F)(F)F)cn1 [Example 200, Piperidin-1-yl(4-(trifluoromethyl)-1H-pyrazol-1-yl)methanone] |  |  |  | 
 |  |  |  |  |  |  |  | > 1000 nM | < 100 nM | 100 to 1000 nM | > 1000 nM | 25 to 75% | > 75% | > 75% | < 25% | CCN(Cc1ccc(N2CCOCC2)cc1)C(=O)n1cc(C#N)cn1 [Example 263, 4-Cyano-N-ethyl-N-(4-morpholinobenzyl)-1H-pyrazole-1-carboxamide] |  |  |  | 
